# According to the supplement of paper PMC10307832:
# Legend:
# Assay in all cases: relative viability (nuclei count vs DMSO), 5 days (fraction); higher = more cells survive
# LCLC-97TM1 = test system: LCLC-97TM1
# How it was run: (§1)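 Five library-drug doses in √10 steps were combined with a fixed anchor-drug dose, or a single drug was given alone, by pin tool to lung cancer cell lines in 1536-well plates the day after seeding. Nuclei were stained and counted after 5 days. Relative viability is the nuclei count in treated wells over that in vehicle wells, taken as the median of duplicate plates.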
# BEN = test system: BEN
# How it was run: as §1
# EPLC-272H = test system: EPLC-272H
# How it was run: as §1
# HCC-78 = test system: HCC-78
# How it was run: as §1
# LU99A = test system: LU99A
# How it was run: as §1
# LK-2 = test system: LK-2
# How it was run: as §1
# NCI-H727 = test system: NCI-H727
# How it was run: as §1
# COR-L 105 = test system: COR-L 105
# How it was run: as §1
# HCC-827 = test system: HCC-827
# How it was run: as §1
# NCI-H2087 = test system: NCI-H2087
# How it was run: as §1
# NCI-H1563 = test system: NCI-H1563
# How it was run: as §1
# NCI-H1792 = test system: NCI-H1792
# How it was run: as §1
# LOU-NH91 = test system: LOU-NH91
# How it was run: as §1
# EKVX = test system: EKVX
# How it was run: as §1
# NCI-H2126 = test system: NCI-H2126
# How it was run: as §1
# NCI-H358 = test system: NCI-H358
# How it was run: as §1
# EMC-BAC-2 = test system: EMC-BAC-2
# How it was run: as §1
# SK-MES-1 = test system: SK-MES-1
# How it was run: as §1
# SW 1573 = test system: SW 1573
# How it was run: as §1
structure (smiles),measurement,setting,value
COCC1(CO)C(=O)C2CCN1CC2 (stereo unspecified) [PRIMA-1MET] + Cc1nc(NC(=O)N2CCC[C@H]2C(N)=O)sc1-c1ccnc(C(C)(C)C(F)(F)F)c1 [Alpelisib] (partner 2 µM),relative viability,LCLC-97TM1; first compound 0.2 µM,0.277
same,relative viability,LCLC-97TM1; first compound 2 µM,0.22
same,relative viability,LCLC-97TM1; first compound 6.325 µM,0.232
same,relative viability,LCLC-97TM1; first compound 20 µM,0.0607
same,relative viability,BEN; first compound 0.2 µM,1.26
same,relative viability,BEN; first compound 0.6325 µM,0.833
same,relative viability,BEN; first compound 6.325 µM,0.909
same,relative viability,BEN; first compound 20 µM,0.994
same,relative viability,EPLC-272H; first compound 0.2 µM,1.06
same,relative viability,EPLC-272H; first compound 0.6325 µM,0.784
same,relative viability,EPLC-272H; first compound 2 µM,0.869
same,relative viability,EPLC-272H; first compound 6.325 µM,0.869
same,relative viability,EPLC-272H; first compound 20 µM,0.667
same,relative viability,HCC-78; first compound 0.2 µM,0.364
same,relative viability,HCC-78; first compound 0.6325 µM,0.26
same,relative viability,HCC-78; first compound 6.325 µM,0.335
same,relative viability,HCC-78; first compound 20 µM,0.0523
same,relative viability,LU99A; first compound 0.2 µM,0.631
same,relative viability,LU99A; first compound 0.6325 µM,0.457
same,relative viability,LU99A; first compound 2 µM,0.488
same,relative viability,LU99A; first compound 6.325 µM,0.293
same,relative viability,LU99A; first compound 20 µM,0.0448
same,relative viability,LK-2; first compound 0.2 µM,1.22
same,relative viability,LK-2; first compound 0.6325 µM,0.868
same,relative viability,LK-2; first compound 2 µM,0.577
same,relative viability,LK-2; first compound 6.325 µM,0.626
same,relative viability,LK-2; first compound 20 µM,0.162
same,relative viability,NCI-H727; first compound 0.2 µM,0.592
same,relative viability,NCI-H727; first compound 0.6325 µM,0.612
same,relative viability,NCI-H727; first compound 2 µM,0.568
same,relative viability,NCI-H727; first compound 6.325 µM,0.402
same,relative viability,NCI-H727; first compound 20 µM,0.0858
same,relative viability,COR-L 105; first compound 0.2 µM,1.11
same,relative viability,COR-L 105; first compound 0.6325 µM,0.997
same,relative viability,COR-L 105; first compound 2 µM,1.14
same,relative viability,COR-L 105; first compound 6.325 µM,0.852
same,relative viability,COR-L 105; first compound 20 µM,0.176
same,relative viability,HCC-827; first compound 0.2 µM,1.01
same,relative viability,HCC-827; first compound 0.6325 µM,0.896
same,relative viability,HCC-827; first compound 2 µM,0.877
same,relative viability,HCC-827; first compound 6.325 µM,0.974
same,relative viability,HCC-827; first compound 20 µM,0.948
same,relative viability,NCI-H2087; first compound 0.2 µM,1.23
same,relative viability,NCI-H2087; first compound 0.6325 µM,0.775
same,relative viability,NCI-H2087; first compound 2 µM,1.18
same,relative viability,NCI-H2087; first compound 6.325 µM,1.28
same,relative viability,NCI-H2087; first compound 20 µM,0.901
same,relative viability,NCI-H1563; first compound 0.2 µM,0.889
same,relative viability,NCI-H1563; first compound 0.6325 µM,0.904
same,relative viability,NCI-H1563; first compound 2 µM,0.915
same,relative viability,NCI-H1563; first compound 6.325 µM,1.05
same,relative viability,NCI-H1563; first compound 20 µM,0.361
same,relative viability,NCI-H1792; first compound 0.2 µM,0.708
same,relative viability,NCI-H1792; first compound 0.6325 µM,0.557
same,relative viability,NCI-H1792; first compound 2 µM,0.456
same,relative viability,NCI-H1792; first compound 6.325 µM,0.754
same,relative viability,NCI-H1792; first compound 20 µM,0.687
same,relative viability,LOU-NH91; first compound 0.2 µM,0.78
same,relative viability,LOU-NH91; first compound 0.6325 µM,0.652
same,relative viability,LOU-NH91; first compound 2 µM,0.569
same,relative viability,LOU-NH91; first compound 6.325 µM,0.669
same,relative viability,LOU-NH91; first compound 20 µM,0.507
same,relative viability,EKVX; first compound 0.2 µM,0.978
same,relative viability,EKVX; first compound 0.6325 µM,0.966
same,relative viability,EKVX; first compound 2 µM,0.638
same,relative viability,EKVX; first compound 6.325 µM,0.911
same,relative viability,EKVX; first compound 20 µM,0.778
same,relative viability,NCI-H2126; first compound 0.2 µM,0.822
same,relative viability,NCI-H2126; first compound 0.6325 µM,0.749
same,relative viability,NCI-H2126; first compound 2 µM,0.743
same,relative viability,NCI-H2126; first compound 6.325 µM,0.848
same,relative viability,NCI-H2126; first compound 20 µM,0.706
same,relative viability,NCI-H358; first compound 0.2 µM,1.17
same,relative viability,NCI-H358; first compound 0.6325 µM,0.781
same,relative viability,NCI-H358; first compound 6.325 µM,0.908
same,relative viability,NCI-H358; first compound 20 µM,0.0962
same,relative viability,EMC-BAC-2; first compound 0.2 µM,0.82
same,relative viability,EMC-BAC-2; first compound 0.6325 µM,0.719
same,relative viability,EMC-BAC-2; first compound 2 µM,0.666
same,relative viability,EMC-BAC-2; first compound 6.325 µM,0.775
same,relative viability,EMC-BAC-2; first compound 20 µM,0.759
same,relative viability,SK-MES-1; first compound 0.2 µM,0.885
same,relative viability,SK-MES-1; first compound 0.6325 µM,1.02
same,relative viability,SK-MES-1; first compound 2 µM,0.747
same,relative viability,SK-MES-1; first compound 6.325 µM,0.823
same,relative viability,SK-MES-1; first compound 20 µM,0.822
same,relative viability,SW 1573; first compound 0.2 µM,0.845
same,relative viability,SW 1573; first compound 0.6325 µM,0.691
same,relative viability,SW 1573; first compound 2 µM,0.538
same,relative viability,SW 1573; first compound 6.325 µM,0.355
same,relative viability,SW 1573; first compound 20 µM,0.0324
